Measurements as given in patent US20190390170A1, “METHODS FOR MODULATING PRODUCTION PROFILES OF RECOMBINANT PROTEINS” (ARES TRADING S.A., priority 2016, published 2019).

Key:
[1] = system: CHO-S cells expressing a fusion protein P1; test: Fed-batch culture of P1 cells with valeric acid (viable cell density, viability, titer); assay type: cell-based, Chinese hamster
Procedure: Assays were performed with 2 CHO cell lines: • CHO-S cells expressing a fusion protein P1, herein “Cells P1” or “P1 cells”. “P1” is an IgG1 fusion protein, comprising one part directed against a membrane protein (IgG part) linked to a second part targeting a soluble immune protein. Its isoelectric point (pi) is about 6.3-7.0. • CHO-K1 cells expressing a monoclonal antibody P2, herein “Cells P2” or “P2 cells”. “P2” is a humanised monoclonal antibody directed against a receptor found on the cell membrane. Its isoelectric point (pi) is about 9.20-9.40. Cell expansion was performed in tubes in a medium suitable for cell expansion. Assays in fed-batch started after at least one week expansion. Cells expressing both P1 and P2 were inoculated at 0.2×10^6 viable cells per millilitre (mL). All assays were performed in fed-batch culture. The host cells were cultured in fed-batch system either in microplates (“Deep well plate”, “DWP”) or in Spin Tubes®, and incubated at 36.5° C., 90% relative humidity, 5% CO2 and 320 rpm shaking during 14 days. A stock solution of valeric acid was prepared in a standard production proprietary medium. The valeric acid concentration of this stock solution was 195 mM. The stock solution was used to supplement media to test different valeric acid concentrations from the beginning of the culture (day 0; tested concentrations: 1, 1.5 and 2 mM). The solution was also used like a feed to supplement the valeric acid to the culture at different time points during the fed-batch (day 3, 4, 5 or 7). When the solution was used like a feed, the target concentration in the culture was always 1.5 mM. Viable cell density and viability were measured with the Guava easyCyte® flow cytometer or with the ViCell. Antibody titres were measured with the fortéBIO Octet® or with Biacore C®.

[2] = system: CHO-K1 cells expressing a monoclonal antibody P2; test: Fed-batch culture of P2 cells with valeric acid (viable cell density, viability, titer); assay type: cell-based, Chinese hamster
Procedure: Assays were performed with 2 CHO cell lines: • CHO-S cells expressing a fusion protein P1, herein “Cells P1” or “P1 cells”. “P1” is an IgG1 fusion protein, comprising one part directed against a membrane protein (IgG part) linked to a second part targeting a soluble immune protein. Its isoelectric point (pi) is about 6.3-7.0. • CHO-K1 cells expressing a monoclonal antibody P2, herein “Cells P2” or “P2 cells”. “P2” is a humanised monoclonal antibody directed against a receptor found on the cell membrane. Its isoelectric point (pi) is about 9.20-9.40. Cell expansion was performed in tubes in a medium suitable for cell expansion. Assays in fed-batch started after at least one week expansion. Cells expressing both P1 and P2 were inoculated at 0.2×10^6 viable cells per millilitre (mL). All assays were performed in fed-batch culture. The host cells were cultured in fed-batch system either in microplates (“Deep well plate”, “DWP”) or in Spin Tubes®, and incubated at 36.5° C., 90% relative humidity, 5% CO2 and 320 rpm shaking during 14 days. A stock solution of valeric acid was prepared in a standard production proprietary medium. The valeric acid concentration of this stock solution was 195 mM. The stock solution was used to supplement media to test different valeric acid concentrations from the beginning of the culture (day 0; tested concentrations: 1, 1.5 and 2 mM). The solution was also used like a feed to supplement the valeric acid to the culture at different time points during the fed-batch (day 3, 4, 5 or 7). When the solution was used like a feed, the target concentration in the culture was always 1.5 mM. Viable cell density and viability were measured with the Guava easyCyte® flow cytometer or with the ViCell. Antibody titres were measured with the fortéBIO Octet® or with Biacore C®. In this experiment the addition of 1.5 mM valeric acid to the culture on day 03, 04 or 05 was tested. For this experiment a CHO-k1 cell line (P2 cells) was used to confirm that valeric acid has the same effect than on CHO-S cells (P1 cells as discussed in a.).

[3] = valeric acid in media on day 0 (1, 1.5 and 2 mM)
[4] = 1.5 mM valeric acid added day 03, 04 or 05, until day 12

CCCCC(=O)O [valeric acid]
viability of the culture compared to control ([1]; 1.5 mM valeric acid added as feed (day 3, 5 or 7), as of day 12): prolonged compared to the control runs | cell viability compared to control ([1]; 1.5 mM valeric acid added as feed (day 3, 5 or 7), until day 11): no impact on cell viability until day 11 | increase of titer compared to control ([1]; 1.5 mM valeric acid added as feed at day 3, titer at day 12): about 20% | increase of titer compared to control ([1]; 1.5 mM valeric acid added as feed at day 5, titer at day 12): about 30% | increase of titer compared to control ([1]; 1.5 mM valeric acid added as feed at day 7, titer at day 12): about 20% | cell growth rate compared to control ([1]; 1.5 mM valeric acid added at day 3): slowed down | final titer [1, 3]: not improved | maximum viable cell density [1, 3]: The higher the concentration, the lower the maximum viable cell density | viability [1, 3]: maintained longer than for control experiment | impact on cell density and titer ([1]; valeric acid in the media on day 0): very negative impact on both cell density and titer | viability compared to control culture ([2]; 1.5 mM valeric acid added day 03, 04 or 05, starting day 13): prolonged compared to the control culture | cell viability compared to control [2, 4]: no impact on cell viability | titer compared to control [2, 4]: comparable to control | maximum viable cell density compared to control ([2]; 1.5 mM valeric acid added earlier during the culture (day 03, 04 or 05)): decreased | titer increase compared to control ([2]; 1.5 mM valeric acid at day 3, titer at day 17): about 25% | titer increase compared to control ([2]; 1.5 mM valeric acid at day 5, titer at day 17): about 35% | titer increase compared to control ([2]; 1.5 mM valeric acid at day 7 (so in the source), titer at day 17): about 25% | titer obtained ([2]; optimal valeric acid condition, after day 17 (data not shown), control 0.9 g/L): ~5 g/L
